Experimental data from paper PMC10388327, “Dual Piperidine-Based Histamine H3 and Sigma-1 Receptor Ligands in the Treatment of Nociceptive and Neuropathic Pain” (Journal of Medicinal Chemistry, 2023).
Where a name gives a salt, the structure may show the parent alone. Read-outs that look alike come from different tables or passages of the source.

Columns and labels:
[1] = test system: mice; test: formalin test; type: in vivo; conditions: for ED50: Mus musculus, ip
Text: The formalin test is one of the most useful screening models for testing potentially clinically relevant antinociceptive molecules because of its ease of administration, standardization, and validation with reference drugs.[50] The subcutaneous injection of formalin results in a focal injury that stimulates and then damages sensory endings. Two distinct phases of nociceptive response are associated with the immediate activation of nociceptors and sensitization of spinal reflex circuits during phase I and II responses, respectively.[51]
The procedure used was essentially the same as that described previously.[86],[87] Briefly, 20 μL of 1.5% formalin solution was injected intraplantarly (i.pl.) into the mice right hind paw using a 26-gauge needle. […] The total time (in seconds) spent on licking the injected paw during periods of 0–5 min (early phase, neurogenic) and 15–30 min (late phase, inflammatory) was measured and was considered as an indicator of nociceptive behavior. Before formalin injection, different groups of mice were treated i.p. with the vehicle (10 mL/kg, negative control) and the varying doses of 12 (5, 10, 15, and 30 mg/kg).

[2] = test system: mice; test: motor coordination in the rotarod test; type: in vivo; conditions: 15 mg/kg i.p.; 6, 18 and 24 rpm
Text: The neurotoxicity of the new compounds can result in impaired motor functions of the experimental animals, which may subsequently cause false interpretation of the results of in vivo tests. Understandably, neurotoxicity is also the frequent reason for eliminating the tested compound from further studies. To minimize that risk, we investigated the influence of our lead structures on motor coordination in the rotarod test, which is the classical test used for assessing motor coordination and balance in rodents. It provides a quick and simple estimation of neuromuscular coordination. […] The time spent on the rotarod apparatus was 60 s for each control mouse.
The test was carried out on the semiautomatic rotarod apparatus (Rotarod apparatus Panlab/Harvard Apparatus, LE 8200, Spain) according to the method previously described in the literature.[85] The mice were trained for 3 days on the rod rotating at a constant speed of 18 rotations per minute (rpm). During each training session, the animals were placed on the rod for 3 min with an unlimited number of trials. On the test day (24 h after the final training trial), 30 min before the rotarod test, the mice were pretreated (i.p.) with the test compound (15 mg/kg). Then, the animals were tested on the rotarod revolving at 6, 18, and then 24 rpm. Motor impairments, defined as the inability to remain on the rotating rod for 1 min, were measured at each speed.

[3] = parallel artificial membrane permeability assay (PAMPA); type: in vitro ADME; conditions: 100 μM in PBS pH 7.4, RT, read-out: Pe (permeability coefficient)
[4] = target: T1, human histamine H4 receptor (hH4R) (Homo sapiens, UniProt Q9H3N8); test: hH4R radioligand binding ([3H]UR-PI294); conditions: read-out: hH4R (Ki [nM] x̅ [CI 95%]); HEK293T cells; n = 3, triplicate
T1 construct: SP (signal peptide) (N); FLAG (N); expressed in transfected cells
T1 sequence (Q9H3N8 whole entry): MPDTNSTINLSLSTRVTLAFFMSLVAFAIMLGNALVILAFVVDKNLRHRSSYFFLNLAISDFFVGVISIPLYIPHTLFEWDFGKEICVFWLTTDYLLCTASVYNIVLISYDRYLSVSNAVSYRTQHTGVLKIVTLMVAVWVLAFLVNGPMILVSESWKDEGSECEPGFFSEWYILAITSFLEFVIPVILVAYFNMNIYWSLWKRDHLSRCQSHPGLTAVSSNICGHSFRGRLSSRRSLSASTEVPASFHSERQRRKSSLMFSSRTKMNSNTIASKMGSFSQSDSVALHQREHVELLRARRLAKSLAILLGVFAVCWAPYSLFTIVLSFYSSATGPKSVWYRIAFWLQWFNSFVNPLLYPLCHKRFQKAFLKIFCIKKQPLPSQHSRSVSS
Experimental: (§1) To check the selectivity profile of our lead structures, radioligand binding studies at other histamine receptor subtypes were carried out. […] Obtained results clearly indicate the high selectivity of the tested derivatives toward human H3R (Table 3).
(§2) Compounds (as oxalate salts) were tested in H3R in vitro binding studies using the methods described previously.[21]−[23] […] Radioligand binding experiments at the H1R, H2R, and H4R were performed as previously described in Rosier et al.[65] and Bartole et al.[66] […] Data represent mean values ± CI from three independent experiments, each performed in triplicate. The normalized competition binding curves were then fitted with a four-parameter logistic fit yielding IC50 values using the Prism 8.4.3 software (GraphPad, San Diego, CA). The Ki values were estimated from the Cheng–Prusoff equation.[69]

[5] = target: T2, sigma-2 receptor (σ2R) (Rattus norvegicus, UniProt Q5U3Y7); test: σ2R radioligand binding ([3H]DTG); conditions: read-out: σ2R Ki [nM] x̄ [CI 95%]; mean [CI 95%]
T2 construct: The thawed membrane preparation of rat liver was incubated; from tissue; host or cells: Sprague-Dawley rat liver membranes
T2 sequence (Q5U3Y7 1-176): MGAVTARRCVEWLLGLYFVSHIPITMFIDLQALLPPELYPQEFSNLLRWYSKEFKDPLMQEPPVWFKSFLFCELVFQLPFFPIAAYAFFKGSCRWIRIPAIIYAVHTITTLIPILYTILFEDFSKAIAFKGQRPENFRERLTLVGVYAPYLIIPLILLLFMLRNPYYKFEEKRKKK

[6] = target: T3, human histamine H2 receptor (hH2R) (Homo sapiens, UniProt P25021); test: hH2R radioligand binding ([3H]UR-DE257); conditions: HEK293T cells, n = 3, triplicate
T3 construct: SP (signal peptide) (N); FLAG (N); expressed in transfected cells
T3 sequence (P25021 whole entry): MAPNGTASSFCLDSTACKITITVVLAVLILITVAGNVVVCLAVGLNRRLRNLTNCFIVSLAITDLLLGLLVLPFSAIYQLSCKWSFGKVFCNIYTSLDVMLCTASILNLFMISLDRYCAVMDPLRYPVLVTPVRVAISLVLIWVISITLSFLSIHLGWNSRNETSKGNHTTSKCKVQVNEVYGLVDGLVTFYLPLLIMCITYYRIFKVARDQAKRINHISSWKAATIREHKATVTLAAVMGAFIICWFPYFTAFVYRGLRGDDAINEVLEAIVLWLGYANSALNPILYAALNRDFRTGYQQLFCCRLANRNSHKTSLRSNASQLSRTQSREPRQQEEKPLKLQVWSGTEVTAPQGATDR
Experimental: as §1, §2

[7] = target: T4, sigma-1 receptor (σ1R) (Cavia porcellus, UniProt Q60492); test: σ1R radioligand binding ([3H](+)-pentazocine); design: species or system guinea pig; conditions: read-out: σ1R Ki [nM] x̄ [CI 95%]; mean [CI 95%]
T4 construct: The thawed membrane preparation of the guinea pig brain cortex was incubated; from tissue; host or cells: male Dunkin-Hartley guinea pig brain cortex membranes
T4 sequence (Q60492 whole entry): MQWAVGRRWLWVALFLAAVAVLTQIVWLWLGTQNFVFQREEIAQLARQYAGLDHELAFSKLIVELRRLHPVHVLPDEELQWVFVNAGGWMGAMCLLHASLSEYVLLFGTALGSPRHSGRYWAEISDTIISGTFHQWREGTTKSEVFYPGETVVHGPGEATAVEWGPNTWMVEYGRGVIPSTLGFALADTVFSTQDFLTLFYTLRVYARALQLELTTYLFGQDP

[8] = test system: sigma-1 receptor (σ1R); test: σ1R radioligand binding ([3H](+)-pentazocine); design: species or system guinea pig; conditions: ratio of σ2R Ki to σ1R Ki
[9] = test system: mice; test: spontaneous locomotor activity; type: in vivo; conditions: 15 mg/kg i.p.
Experimental: The high sedative activity of analgesics is considered an undesirable property, which may lead to an incorrect or ambiguous interpretation of the in vivo results. Moreover, it may limit the potential clinical application of new drug candidates.
This test was carried out according to the procedure described elsewhere.[84] The animals were injected (i.p.) with 12 at doses of 5, 15, and 30 mg/kg and placed in the activity cages individually (30 min before the experiment). The number of light-beam crossings was counted in each group during the next 30 min in 10 min intervals.

[10] = target: T5, human recombinant histamine H3R (Homo sapiens, UniProt Q9Y5N1); test: hH3R radioligand binding ([3H]Nα-methylhistamine depletion assay); conditions: read-out: hH3R Ki [nM] x̄ [CI 95%]; mean [CI 95%]; HEK-293 cells
T5 construct: expressed in transfected cells
T5 sequence (Q9Y5N1 whole entry): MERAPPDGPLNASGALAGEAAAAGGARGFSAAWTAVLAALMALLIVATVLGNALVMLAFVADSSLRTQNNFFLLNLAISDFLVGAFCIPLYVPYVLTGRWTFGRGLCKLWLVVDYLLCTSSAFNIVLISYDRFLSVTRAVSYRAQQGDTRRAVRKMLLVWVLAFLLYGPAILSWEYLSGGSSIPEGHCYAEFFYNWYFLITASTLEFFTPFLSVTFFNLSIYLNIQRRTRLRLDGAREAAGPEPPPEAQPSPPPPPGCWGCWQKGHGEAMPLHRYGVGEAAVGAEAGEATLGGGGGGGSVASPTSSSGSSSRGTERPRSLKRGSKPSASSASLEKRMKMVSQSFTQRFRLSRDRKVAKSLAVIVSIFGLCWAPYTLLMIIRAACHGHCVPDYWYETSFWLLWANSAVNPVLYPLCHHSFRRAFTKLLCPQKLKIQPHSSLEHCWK

[11] = target: T6, human histamine H1 receptor (hH1R) (Homo sapiens, UniProt P35367); test: hH1R radioligand binding ([3H]mepyramine); conditions: read-out: hH1R (Ki [nM] x̅ [CI 95%]); HEK293T cells; n = 3, triplicate
T6 construct: SP (signal peptide) (N); FLAG (N); expressed in transfected cells
T6 sequence (P35367 whole entry): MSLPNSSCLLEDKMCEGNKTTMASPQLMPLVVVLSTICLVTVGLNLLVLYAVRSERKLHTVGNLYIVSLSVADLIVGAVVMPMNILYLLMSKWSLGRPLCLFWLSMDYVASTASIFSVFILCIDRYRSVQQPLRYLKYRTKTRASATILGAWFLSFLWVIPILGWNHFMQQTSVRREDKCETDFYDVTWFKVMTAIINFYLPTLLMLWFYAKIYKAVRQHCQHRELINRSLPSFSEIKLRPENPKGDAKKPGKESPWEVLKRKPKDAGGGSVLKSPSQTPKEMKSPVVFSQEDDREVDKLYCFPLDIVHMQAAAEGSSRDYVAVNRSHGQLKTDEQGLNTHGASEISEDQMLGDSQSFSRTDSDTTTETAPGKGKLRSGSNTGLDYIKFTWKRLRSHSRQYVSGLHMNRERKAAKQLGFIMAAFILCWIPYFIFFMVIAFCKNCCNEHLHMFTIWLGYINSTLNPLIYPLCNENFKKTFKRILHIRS
Experimental: as §1, §2

[12] = observation during crystallization
[13] = pKa determination by potentiometric titration; type: physicochemical; conditions: for pKa: aqueous solution
Experimental: In addition, we tested the amino alcohol fragments of these compounds to carefully monitor the influence of individual protonated nitrogen atoms on the obtained pKa values (Figure 4). […] Based on a previously modified potentiometric procedure,[27],[28] a series of titrations were performed, and the pKa values were determined using the Kostrowicki and Liwo algorithm.[29],[30] […] That explains the surprising result of free base crystallization attempts where iodide salt was obtained instead of the neutral form. On the other hand, in the same environment, KSK94 exists in two forms: the monoprotonated form [HL^+] (20.56%) and the free ligand [L] (77.72%, Figure 5). […] KSK68 can be characterized as a basic ligand with pKa1 = 4.9 (pyridine N) and pKa2 = 8.4 (piperidine N). The pKa values are consistent with those determined by the same procedure for the corresponding amino alcohol 3-(4-(pyridin-4-yl)piperidin-1-yl)propan-1-ol (Figure 4). […] A similarly low pKa2 value for the N7 piperazine nitrogen atom was also determined for the corresponding amino alcohol 3-(4-(pyridin-4-yl)piperazin-1-yl)propan-1-ol (Figure 4), which is in agreement with the value obtained for 1-phenyl-4-methyl piperazine reported in the literature.[31] […] The lowest value was determined for 4-nitrophenyl, and the highest was for 2-methylphenyl derivatives.[32]
The potentiometric microtitration was performed in a thermostated 20 mL cell using a CerkoLab microtitration unit fitted with a pH electrode (Hydromet ERH-13-6). The electrode was calibrated with the use of buffer solutions: pH = 4.00, 7.00, and 10.00. Titrant T (0.1 M KOH) was standardized according to the general analytical procedure and protected from carbon dioxide. Double distilled water with a conductivity of about 0.18 mS/cm was used to prepare all aqueous solutions. DMSO (HPLC grade, 99.5%) was supplied by Sigma Aldrich. The concentration of the titrant solution (D) was 0.0025–0.005 M. The solubilization procedure was follows: The appropriate amount of KSK compound was dissolved in 1 mL 0.1 M HCl and 1 mL DMSO to prepare a 25 mL stock solution. The developed solubilization system can be recommended for poorly soluble derivatives. The analytical procedure was a follows: volume V0 = 4.5 mL of titrant D was titrated with 0.1 M titrant T using the CerkoLab System equipped with a 5 mL syringe pump.

[14] = target: T5, human recombinant histamine H3R; conditions: read-out: hH3R Ki [nM] x̄ [CI 95%]; mean [CI 95%]; recalculated from published data; cited from earlier work
[15] = target: H3R; design: method as in PMID 30359639; conditions: Figure 1, compounds evaluated in clinical trials; cited from earlier work
[16] = test system: mice; test: loperamide-induced antinociception (paw pressure, struggle response latency); type: in vivo, Female CD1 mice
[17] = 0–5 min after formalin, read-out: ED50, formalin test phase I (acute phase)
[18] = 15–30 min after formalin, read-out: ED50, formalin test phase II (late phase)
[19] = Figure 5, species distribution from titration curves
[20] = experimental, potentiometric titration

c1ccc(Nc2ccc(OCCCN3CCCCC3)cc2)cc1 [Compound 7, N-Phenyl-4-(3-(piperidin-1-yl)propoxy)aniline Oxalate]
ED50 [1, 17]: 11.9 mg/kg
ED50 [1, 18]: 11.7 mg/kg
ED50, formalin test phase I (acute phase) ([1]; i.p., 0–5 min after formalin): 11.95 mg/kg
ED50, formalin test phase II (late phase) ([1]; i.p., 15–30 min after formalin): 11.71 mg/kg
influence on motor coordination, time on rotarod [2]: significantly decreased the time spent on the rod at 18 and 24 rpm
Papp at 5 h, 100 µM [3]: 10.6 ×10⁻⁶ cm/s
Ki [4]: > 10000 nM
Ki [5]: 116 nM
Ki [6]: > 10000 nM
Ki [7]: 4.8 nM
σ2/σ1 ratio [8]: 24.2
influence on spontaneous locomotor activity (sedative effect) [9]: high and significant sedative effects
Ki [10]: 5.2 nM
Ki [11]: > 10000 nM

O=C(c1ccc(OCCCN2CCC(c3ccncc3)CC2)cc1)C1CC1 [KSK68]
solubility in water [12]: more soluble in H2O than KSK67
pK of equilibrium H2L+2 = H+ + HL+ [13, 19]: 4.94
pK of equilibrium HL+ = H+ + L0 [13, 19]: 8.38
monoprotonated form [HL+] ([13]; aqueous solution at physiological pH): approximately 90%
pKa ([13]; experimental, potentiometric titration, read-out: pKa1): 4.9
pKa ([13]; experimental, potentiometric titration, read-out: pKa2): 8.4
pKa1 [13, 20]: 4.94
pKa2 [13, 20]: 8.38

c1ccc(-c2ccc(OCCCCCN3CCCCC3)cc2)cc1 [Compound 10, 1-(5-([1,1′-Biphenyl]-4-yloxy)pentyl)piperidine Oxalate]
Ki [5]: 19 nM
Ki [14]: 21.7 nM
Ki [7]: 140 nM

Cc1cc(OCCN2CCOCC2)nn1-c1ccc2ccccc2c1 [Compound S1RA, 4-[2-[[5-methyl-1-(2-naphthalenyl)1H-pyraol-3-yl]oxy]ethyl]morpholine hydrochloride]
Ki [15]: > 10000 nM
Papp at 5 h, 100 µM [3]: 5.26 ×10⁻⁶ cm/s
in vivo σ1 receptor functional profile ([16]; concluded from PRE-084 reversal): σ1 receptor antagonists
effect on loperamide-induced antinociception ([16]; i.pl. with loperamide 4 mg/kg s.c., injected paw): significantly and dose-dependently (50–100 μg) increased the antinociceptive effect induced by loperamide
effect alone on struggle response latency ([16]; i.pl., S1RA 100 μg, 12 25 μg, 450 g pressure): did not change the response to the mechanical stimulus

c1ccc(-c2ccc(OCCCN3CCCCCC3)cc2)cc1 [Compound 3, 1-(3-([1,1′-Biphenyl]-4-yloxy)propyl)azepane Oxalate]
ED50 [1, 17]: 14.2 mg/kg
ED50 [1, 18]: 13.3 mg/kg
influence on motor coordination, time on rotarod [2]: significantly impaired the motor coordination of mice
Papp at 5 h, 100 µM [3]: 6.57 ×10⁻⁶ cm/s
Ki [4]: > 10000 nM
Ki [5]: 25 nM
Ki ([6]; read-out: hH2R (Ki [nM] x̅ [CI 95%])): > 10000 nM
Ki [7]: 1.9 nM
σ2/σ1 ratio [8]: 13.2
influence on spontaneous locomotor activity (sedative effect) [9]: high and significant sedative effects
Ki [10]: 4.3 nM
Ki [11]: 7620 nM

c1ccc(-c2ccc(OCCCCCCN3CCCCC3)cc2)cc1 [Compound 11, 1-(6-([1,1′-Biphenyl]-4-yloxy)hexyl)piperidine Oxalate]
Ki [5]: 46 nM
Ki [14]: 88.9 nM
Ki [7]: 118 nM

c1cc(OCCCN2CCCCC2)ccc1CN1CCCCC1 [JNJ-5207852]
Ki [15]: 0.3 nM
